The source of these data is article PMC6272327, “Discovery of Metal Ions Chelator Quercetin Derivatives with Potent Anti-HCV Activities” (Molecules, 2015).

Each structure is given as a SMILES string.

The test system of data set [1] is HCV infectious virus J399EM. Nature of the data set: Anti-HCV assay in authentic HCV infection/replication system (J399EM EGFP reporter virus) in Huh7.5.1 cells. Conditions: ratio of CC50 to EC50, Huh7.5.1 cells. The data set is classed as cell-based, hepatitis C virus (JFH1-derived, genotype 2a). The protocol:
(§1) The inhibition of HCV by all synthesized quercetin derivatives was evaluated following a previously reported procedure. All newly synthesized compounds were tested in authentic HCV infection/replication system in the human hepatoma cell lines Huh7.5.1 using mycophenolic acid (MPA) as control compound. The cytotoxicity effect of the test compounds was also evaluated in the same cell line by MTT method. Antiviral effect and cytotoxicity effect were summarized as EC50 and CC50 respectively, as well as the selective index (SI) which is the ratio of CC50 to EC50. The stability of quercetin-3-O-ester compounds were also tested in the same buffer as the antiviral activity assay at 37 °C and the hydrolysate was measured by HPLC.
The biological assays were performed following a previously reported procedure. The Huh7.5.1 cell line and the HCV infectious virus J399EM were kindly provided by Xin-Wen Chen, Wuhan Institute of Virology, Chinese Academy of Sciences. Huh7.5.1 cells were cultured in Dulbecco’s modified Eagle’s medium (DMEM) containing 10% (v/v) fetal bovine serum, 0.5 mg/mL G418, 100 IU/mL penicillin, and […].
J399EM is an infectious HCV virus derived from the JFH1 virus (genotype 2a) by insertion of enhanced green fluorescent protein (EGFP) into the HCV NS5A region. The establishment of the infectious J399EM HCV virus has been described previously. J399EM was propagated in Huh7.5.1 cells. Briefly, Huh7.5.1 cells were infected with J399EM at MOI = 0.1 and cultured for 4 days. Culture supernatant was collected and filtered through a 0.45 μm membrane and stored at −80 °C as virus stock. Virus titer was tested in Huh7.5.1 cells. Stocks were serially diluted, and the foci forming units (FFU) were determined as the number of fluorescent colonies formed in infected Huh7.5.1.
All the compounds were first dissolved in DMSO at 50 mM, and then diluted to various concentrations (50 μM, 25 μM, 12.5 μM, 6.3 μM and 3.1 μM). Approximately 1 × 10^4 Huh7.5.1 cells per well were plated in an opaque 96-well tissue culture plate (Costar 3904). The next day, the medium was replaced by J399EM virus at an MOI of 0.3. Four hours later, the virus inoculum was removed and medium containing different concentrations of compounds was added. After an additional 72 h of incubation, the culture medium was removed and the EGFP autofluorescence was measured by using a […] with excitation at 488 nm and emission at 516 nm. Compounds and controls were performed in duplicate and each experiment repeated independently at least twice.

Data set [2] can be described thus: Cell viability / cytotoxicity by MTT method. It counts as cell-based. Conditions: human; Huh7.5.1 cells, MTT; concentration required to reduce cell proliferation by 50%; average of duplicate determinations; read-out: CC50. The protocol:
as §1
After the EGFP signal was read, cell viability was measured in the same plate by the MTT [3-(4,5-dimethylthiazol-2-yl)-2,5-diphenyltetrazolium bromide; Sigma-Aldrich, St. Louis, MO, USA] method. Briefly, MTT (1 mg/mL) was dissolved in PBS. Cell culture supernatants were removed and replaced with MTT and further cultured for 4 h; cells were then lysed with 10% sodium dodecyl sulfate (SDS), 50% N,N-dimethylformamide, pH 7.2. OD570 values were read. The percentage of cell death was calculated against the control well without compounds.

Data set [3] relates to HCV infectious virus J399EM. More on the design: method as in PMID 22445328. Conditions: cited from earlier work.
The subject of another data set is HCV RdRp. On the set-up: method as in PMID 25053847. Conditions: at the concentration of 20 μM in an enzyme assay; cited from earlier work.

Consider `O=c1c(O)c(-c2ccc(O)c(O)c2)oc2cc(O)cc(O)c12` [Compound 2, quercetin], for which the “SI (selectivity index)” value in data set [1] is over 2.5. The CC50 (as a rule, the concentration at which the toxic effect on the cells reaches its halfway point) in data set [2] was over 50 µM. For the same compound, the EC50 (commonly the concentration needed to bring the measured effect to its halfway point) in data set [3] (anti-HCV activity of quercetin, earlier work of the authors) was 19.8 µM. Further, the “inhibition of HCV RdRp” value with HCV RdRp is on record as 83.7%.

In the case of `COc1cc(-c2oc3cc(O)cc(O)c3c(=O)c2O)ccc1O` [isorhamnetin], the “inhibition against HCV” value in data set [3] (at 50 μM, previous results) is given as 47.3%.
